Numbered stars: 1 amine (or outer) side, 2 acyl side, 3 side chain; on linkers, the order of the positions; unused ones are H or OH. Bridge positions count the residues as written; N and C are the ends. Square brackets hold non-standard residues; d marks the D form. Peptide text beside a SMILES is read from it. * marks the point of attachment. C20 diacid = O=C(O)CCCCCCCCCCCCCCCCCCC(=O)*; γGlu = O=C(O)[C@H](CCC(=O)[*:2])N[*:1]; NMeI = CC[C@H](C)[C@H](NC)C(=O)O; Sar = CNCC(=O)O
Experiment: Solubility assessment (turbidity absorbance at 325 nm)
Assay type: physicochemical
Conditions: stock 2 mg/ml diluted 1:1, ambient temperature (typically 25°C), n=1; for Solubility, Acetate buffer pH 4: 100 mM acetate buffer pH 4.0; for Solubility, Acetate buffer pH 5: 100 mM acetate buffer pH 5.0; for Solubility, Histidine buffer pH 6: 100 mM histidine buffer pH 6.0; for Solubility, Histidine buffer pH 7: 100 mM histidine buffer pH 7.0; for Solubility, Phosphate buffer pH 6: 100 mM phosphate buffer pH 6.0; for Solubility, Phosphate buffer pH 7: 100 mM phosphate buffer pH 7.0; for Solubility, Phosphate buffer pH 7.5: 100 mM phosphate buffer pH7.5
Protocol: A stock solution of the test peptide (2 mg/ml; determined from the weighed amount of peptide) in demineralized water adjusted to pH 2.5 with HCI was prepared, and aliquots were diluted 1:1 in 100 mM acetate buffer (pH 4.0 and pH 5.0), 100 mM histidine buffer (pH 6.0 and pH 7.0) and 100 mM phosphate buffer (pH 6.0, pH 7.0 and pH7.5), respectively, and loaded in a standard flat-bottom, non-sterile 96-well UV Microplate. The absorbance of samples (single samples, n=1) at 280 and 325 nm was measured in an absorbance-based plate reader, which was preheated to ambient temperature (typically 25°C). The turbidity absorbance criterion for a peptide solubility of ≥ 1 mg/ml was an absorbance at 325 nm of ≤ 0.02 absorbance units (which is 5 to 6 times the standard deviation of 8 buffer samples in a plate). Solubility data for peptides of the invention, pramlintide, and for a comparison pramlintide derivative denoted NN96 (see Example 5 below for details) are shown in Table 1, below. Table 1. Solubility data for compounds of the invention.

CC[C@H](C)[C@@H](C(=O)N[C@@H](CC(C)C)C(=O)N[C@@H](CO)C(=O)N[C@@H](CO)C(=O)N[C@H](C(=O)N[C@@H](CC(N)=O)C(=O)N[C@H](C(=O)NCC(=O)N[C@@H](CO)C(=O)N[C@@H](CC(N)=O)C(=O)N[C@H](C(=O)N1CCC[C@H]1C(N)=O)[C@@H](C)O)C(C)C)[C@@H](C)O)N(C)C(=O)[C@H](C)NC(=O)CN(C)C(=O)[C@H](Cc1ccccc1)NC(=O)[C@H](CC(N)=O)NC(=O)[C@H](CC(N)=O)NC(=O)[C@H](CO)NC(=O)[C@H](CO)NC(=O)[C@H](Cc1c[nH]cn1)NC(=O)[C@H](Cc1c[nH]cn1)NC(=O)[C@@H](CC(C)C)NC(=O)[C@H](Cc1ccccc1)NC(=O)[C@H](CCC(=O)O)NC(=O)[C@H](C)NC(=O)[C@H](CC(C)C)NC(=O)[C@H](CCCNC(=N)N)NC(=O)[C@H](CCC(N)=O)NC(=O)[C@@H](NC(=O)[C@H](C)NC(=O)[C@@H]1CSSC[C@H](NC(=O)[C@H](CCCNC(=N)N)NC(=O)CC[C@H](NC(=O)CCCCCCCCCCCCCCCCCCC(=O)O)C(=O)O)C(=O)N[C@@H](CC(N)=O)C(=O)N[C@@H]([C@@H](C)O)C(=O)N[C@@H](C)C(=O)N[C@@H]([C@@H](C)O)C(=O)N1)[C@@H](C)O [Compound 10, [19CD]-isoGlu-RC()NTATC()ATQRLAEF-DLeu-HHSSNNF-Gly(Me)-A-Ile(Me)-LSSTNVGSNTP-NH2] ({C20 diacid-γGlu}-RCNTATCATQRLAEF[dL]HHSSNNF[Sar]A[NMeI]LSSTNVGSNTP-NH2; disulfide 2-7)
SS (SS indicates solubility ≥ 1mg/ml): Solubility, Acetate buffer pH 4 | Solubility, Acetate buffer pH 5 | Solubility, Histidine buffer pH 6 | Solubility, Histidine buffer pH 7 | Solubility, Phosphate buffer pH 6 | Solubility, Phosphate buffer pH 7 | Solubility, Phosphate buffer pH 7.5

CC[C@H](C)[C@@H](C(=O)N[C@@H](CC(C)C)C(=O)N[C@@H](CO)C(=O)N[C@@H](CO)C(=O)N[C@H](C(=O)N[C@@H](CC(N)=O)C(=O)N[C@H](C(=O)NCC(=O)N[C@@H](CO)C(=O)N[C@@H](CC(N)=O)C(=O)N[C@H](C(=O)N1CCC[C@H]1C(N)=O)[C@@H](C)O)C(C)C)[C@@H](C)O)N(C)C(=O)[C@H](C)NC(=O)CN(C)C(=O)[C@H](Cc1ccccc1)NC(=O)[C@H](CC(N)=O)NC(=O)[C@@H](CC(N)=O)NC(=O)[C@H](CO)NC(=O)[C@H](CO)NC(=O)[C@H](Cc1c[nH]cn1)NC(=O)[C@H](Cc1c[nH]cn1)NC(=O)[C@H](CC(C)C)NC(=O)[C@H](Cc1ccccc1)NC(=O)[C@H](CCC(=O)O)NC(=O)[C@H](C)NC(=O)[C@H](CC(C)C)NC(=O)[C@H](CCCNC(=N)N)NC(=O)[C@H](CCC(N)=O)NC(=O)[C@@H](NC(=O)[C@H](C)NC(=O)[C@@H]1CSSC[C@H](NC(=O)[C@H](CCCNC(=N)N)NC(=O)CC[C@H](NC(=O)CCCCCCCCCCCCCCCCCCC(=O)O)C(=O)O)C(=O)N[C@@H](CC(N)=O)C(=O)N[C@@H]([C@@H](C)O)C(=O)N[C@@H](C)C(=O)N[C@@H]([C@@H](C)O)C(=O)N1)[C@@H](C)O [Compound 32, [19CD]-isoGlu-RC()NTATC()ATQRLAEFLHHSS-DAsn-NF-Gly(Me)-A-Ile(Me)-LSSTNVGSNTP-NH2] ({C20 diacid-γGlu}-RCNTATCATQRLAEFLHHSS[dN]NF[Sar]A[NMeI]LSSTNVGSNTP-NH2; disulfide 2-7)
SS (SS indicates solubility ≥ 1mg/ml): Solubility, Acetate buffer pH 4 | Solubility, Acetate buffer pH 5 | Solubility, Histidine buffer pH 6 | Solubility, Histidine buffer pH 7 | Solubility, Phosphate buffer pH 6 | Solubility, Phosphate buffer pH 7 | Solubility, Phosphate buffer pH 7.5

CC[C@H](C)[C@@H](C(=O)N[C@@H](CC(C)C)C(=O)N[C@@H](CO)C(=O)N[C@@H](CO)C(=O)N[C@H](C(=O)N[C@@H](CC(N)=O)C(=O)N[C@H](C(=O)NCC(=O)N[C@@H](CO)C(=O)N[C@@H](CC(N)=O)C(=O)N[C@H](C(=O)N1CCC[C@H]1C(N)=O)[C@@H](C)O)C(C)C)[C@@H](C)O)N(C)C(=O)[C@H](C)NC(=O)CN(C)C(=O)[C@H](Cc1ccccc1)NC(=O)[C@@H](CC(N)=O)NC(=O)[C@H](CC(N)=O)NC(=O)[C@H](CO)NC(=O)[C@H](CO)NC(=O)[C@H](Cc1c[nH]cn1)NC(=O)[C@H](Cc1c[nH]cn1)NC(=O)[C@H](CC(C)C)NC(=O)[C@H](Cc1ccccc1)NC(=O)[C@H](CCC(=O)O)NC(=O)[C@H](C)NC(=O)[C@H](CC(C)C)NC(=O)[C@H](CCCNC(=N)N)NC(=O)[C@H](CCC(N)=O)NC(=O)[C@@H](NC(=O)[C@H](C)NC(=O)[C@@H]1CSSC[C@H](NC(=O)[C@H](CCCNC(=N)N)NC(=O)CC[C@H](NC(=O)CCCCCCCCCCCCCCCCCCC(=O)O)C(=O)O)C(=O)N[C@@H](CC(N)=O)C(=O)N[C@@H]([C@@H](C)O)C(=O)N[C@@H](C)C(=O)N[C@@H]([C@@H](C)O)C(=O)N1)[C@@H](C)O [Compound 33, [19CD]-isoGlu-RC()NTATC()ATQRLAEFLHHSSN-DAsn-F-Gly(Me)-A-Ile(Me)-LSSTNVGSNTP-NH2] ({C20 diacid-γGlu}-RCNTATCATQRLAEFLHHSSN[dN]F[Sar]A[NMeI]LSSTNVGSNTP-NH2; disulfide 2-7)
SS (SS indicates solubility ≥ 1mg/ml): Solubility, Acetate buffer pH 4 | Solubility, Acetate buffer pH 5 | Solubility, Histidine buffer pH 6 | Solubility, Histidine buffer pH 7 | Solubility, Phosphate buffer pH 6 | Solubility, Phosphate buffer pH 7 | Solubility, Phosphate buffer pH 7.5
